From patent US8134015B2, “Compound inhibiting in vivo phosphorous transport and medicine containing the same” (Kyowa Hakko Kirin Co., Ltd., priority 2003, dated 2012)
Where a name gives a salt, the structure may show the parent alone.

The molecules below were run against T1, rat NaPi-2b (Rattus norvegicus, UniProt Q9JJ09) (assay: Sodium-dependent phosphate uptake of Xenopus oocytes which expressed NaPi-2b (32P)). Details: Xenopus oocytes expressing rat NaPi-2b, 32P radioactive phosphorus; read-out: IC50 (phosphate uptake inhibitory activity).
T1 construct: expressed in transfected cells; host or cells: Xenopus oocytes injected with cRNA
T1 sequence (Q9JJ09 1-695): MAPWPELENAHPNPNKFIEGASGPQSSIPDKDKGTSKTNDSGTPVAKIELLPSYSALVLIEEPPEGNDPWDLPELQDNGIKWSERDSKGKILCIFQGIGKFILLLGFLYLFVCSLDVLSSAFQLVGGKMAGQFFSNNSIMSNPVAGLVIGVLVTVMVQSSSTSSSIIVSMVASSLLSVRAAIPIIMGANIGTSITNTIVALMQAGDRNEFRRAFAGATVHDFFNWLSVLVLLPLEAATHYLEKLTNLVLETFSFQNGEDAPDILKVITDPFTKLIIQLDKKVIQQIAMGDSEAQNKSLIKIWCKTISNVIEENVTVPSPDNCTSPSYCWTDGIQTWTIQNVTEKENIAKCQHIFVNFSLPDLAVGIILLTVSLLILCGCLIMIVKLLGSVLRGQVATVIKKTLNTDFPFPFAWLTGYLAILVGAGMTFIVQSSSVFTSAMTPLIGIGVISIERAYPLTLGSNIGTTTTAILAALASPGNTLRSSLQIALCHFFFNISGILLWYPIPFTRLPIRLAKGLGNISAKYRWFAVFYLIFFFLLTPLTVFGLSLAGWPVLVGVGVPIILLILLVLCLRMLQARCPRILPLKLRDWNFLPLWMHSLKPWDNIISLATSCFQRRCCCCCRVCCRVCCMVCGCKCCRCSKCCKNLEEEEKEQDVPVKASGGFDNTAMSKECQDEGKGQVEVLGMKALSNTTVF
Format: cell-based
Summary of the method: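 Rat small-intestine NaPi-2b cRNA injected into Xenopus oocytes, expressed for 2 days. Sodium-dependent phosphate uptake measured with 32P; % inhibition at 300 and 100 μM taken from the same inhibition curve.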

Compound | IC50 [µM]
COc1ccc(/C=N/NC(=O)c2c(C)csc2NC(=O)c2cccc(CN(C)C)c2)cc1 [Compound 825, 3-Dimethylaminomethyl-N-[3-(4-methoxy-benzylidene-hydrazinocarbonyl)-4-methyl-thiophen-2-yl]-benzamide] | 4.52
Cc1ccc(/C=N/NC(=O)c2ccsc2NC(=O)c2cccc(CSCCCO)c2)cc1 [Compound 659, 3-(3-Hydroxy-propylsulfanylmethyl)-N-[3-(4-methyl-benzylidene-hydrazinocarbonyl)-thiophen-2-yl]-benzamide] | 12.4
O=C(Nc1ccc(Br)cc1C(=O)N/N=C/c1ccc(Cl)c(C(F)(F)F)c1)c1ccncc1 [Compound 171, N-[4-Bromo-2-(4-chloro-3-trifluoromethyl-benzylidene-hydrazinocarbonyl)-phenyl]-isonicotinamide] | 5.12
CCN(CC)CCN(C)Cc1cccc(C(=O)Nc2scc(C)c2C(=O)N/N=C/c2ccc(F)cc2)c1 [Compound 565, 3-{[(2-Diethylamino-ethyl)-methyl-amino]-methyl}-N-[3-(4-fluoro-benzylidene-hydrazinocarbonyl)-4-methyl-thiophen-2-yl]-benzamide] | 13
O=C(Nc1ccc(Br)cc1C(=O)N/N=C/c1ccc(Cl)c(C(F)(F)F)c1)c1ccc(CSCCCO)cc1 [Compound 278, N-[4-Bromo-2-(4-chloro-3-trifluoromethyl-benzylidene-hydrazinocarbonyl)-phenyl]-4-(3-hydroxy-propylsulfanylmethyl)-benzamide] | 0.16
CN(CCO)Cc1ccc(C(=O)Nc2ccc(Cl)cc2C(=O)N/N=C/c2cccc(F)c2)cc1 [Compound 412, N-[4-Chloro-2-(3-fluoro-benzylidene-hydrazinocarbonyl)-phenyl]-4-{[(2-hydroxy-ethyl)-methyl-amino]-methyl}-benzamide] | 7.96
O=C(Nc1ccc(OCCN2CCCCC2)cc1C(=O)N/N=C/c1ccc(Cl)c(C(F)(F)F)c1)c1cccc(CSCCO)c1 [Compound 1044, N-[2-(4-Chloro-3-trifluoromethyl-benzylidene-hydrazinocarbonyl)-4-(2-piperidin-1-yl-ethoxy)-phenyl]-3-(2-hydroxy-ethylsulfanylmethyl)-benzamide] | 2.13
CCN(CC)CCN(C)Cc1cccc(C(=O)Nc2ccc(OCCOC)cc2C(=O)N/N=C/c2ccc(C)cc2)c1 [Compound 1026, 3-{[(2-Diethylamino-ethyl)-methyl-amino]-methyl}-N-[4-(2-methoxy-ethoxy)-2-(4-methyl-benzylidene-hydrazinocarbonyl)-phenyl]-benzamide] | 3.86
Cc1ccc(/C=N/NC(=O)c2cc(Cl)ccc2NC(=O)c2cccc(CSCCS(=O)(=O)O)c2)cc1 [Compound 693, 2-{3-[4-Chloro-2-(4-methyl-benzylidene-hydrazinocarbonyl)-phenylcarbamoyl]-benzylsulfanyl}-ethanesulfonic acid] | 70.2
O=c1c2cc(Br)ccc2nc(-c2cccc(CSCCO)c2)n1/N=C/c1ccc(F)cc1 [Compound 695, 6-Bromo-3-[(4-fluoro-benzylidene-)-amino]-2-[3-(2-hydroxy-ethylsulfanylmethyl)-phenyl]-3H-quinazolin-4-one] | 6.76
Cc1cccc(/C=N/NC(=O)c2cc(Br)ccc2NC(=O)c2ccc(CN(CC(C)O)CC(C)O)cc2)c1 (stereo not shown) [Compound 718, 4-{[Bis-(2-hydroxy-propyl)-amino]-methyl}-N-[4-bromo-2-(3-methyl-benzylidene-hydrazinocarbonyl)-phenyl]-benzamide] | 6.91
CCN(CCO)Cc1ccc(C(=O)Nc2ccc(Cl)cc2C(=O)N/N=C/c2ccc(C)cc2)cc1 [Compound 435, N-[4-Chloro-2-(4-methyl-benzylidene-hydrazinocarbonyl)-phenyl]-4-{[ethyl-(2-hydroxy-ethyl)-amino]-methyl}-benzamide] | 7.65
O=C(Nc1ccc(Cl)cc1C(=O)N/N=C/c1ccc(Cl)c(C(F)(F)F)c1)c1cccc(C[S+]([O-])Cc2ccco2)c1 (stereo not shown) [Compound 689, N-[4-Chloro-2-(4-chloro-3-trifluoromethyl-benzylidene-hydrazinocarbonyl)-phenyl]-3-(furan-2-ylmethanesulfinylmethyl)-benzamide] | < 3
CCN(CC)CCSCc1cccc(C(=O)Nc2ccc(N3CCCCC3)cc2C(=O)NN=Cc2ccc(OC)cc2)c1 [Compound 879, 3-(2-Diethylamino-ethylsulfanylmethyl)-N-[2-(4-methoxy-benzylidene-hydrazinocarbonyl)-4-piperidin-1-yl-phenyl]-benzamide] | 3.72
Cc1ccc(/C=N/NC(=O)c2ccccc2NC(=O)c2ccncc2)cc1 [Compound 203, N-[2-(4-Methyl-benzylidene-hydrazinocarbonyl)-phenyl]-isonicotinamide hydrochloride] | < 3
COc1ccc(NC(=O)c2ccc(OC)c(OC)c2)c(C(=O)N/N=C/c2ccc(F)cc2)c1 [Compound 142, N-[2-(4-Fluoro-benzylidene-hydrazinocarbonyl)-4-methoxy-phenyl]-3,4-dimethoxy-benzamide] | 9.2
CN(CCO)Cc1cccc(C(=O)Nc2ccc(Cl)cc2C(=O)N/N=C/c2ccc(F)cc2)c1 [Compound 395, N-[4-Chloro-2-(4-fluoro-benzylidene-hydrazinocarbonyl)-phenyl]-3-{[(2-hydroxy-ethyl)-methyl-amino]-methyl}-benzamide] | 8.55
COc1ccc(/C=N/NC(=O)c2cc(Br)ccc2NC(=O)c2ccc(CN3CCC(O)CC3)cc2)cc1 [Compound 330, N-[4-Bromo-2-(4-methoxy-benzylidene-hydrazinocarbonyl)-phenyl]-4-(4-hydroxy-piperidin-1-ylmethyl)-benzamide] | 10.7
CCN1CC(NCc2ccc(-c3nc4ccc(Br)cc4c(=O)n3/N=C/c3cccc(F)c3)cc2)CN1CC [Compound 751, 6-Bromo-2-{4-[(1,2-diethyl-pyrazolidin-4-ylamino)-methyl]-phenyl}-3-[(3-fluoro-benzylidene)-amino]-3H-quinazolin-4-one] | 13.1
CC(O)CN(Cc1ccc(C(=O)Nc2ccc(Br)cc2C(=O)N/N=C/c2cccc(F)c2)cc1)CC(C)O (stereo not shown) [Compound 720, 4-{[Bis-(2-hydroxy-propyl)-amino]-methyl}-N-[4-bromo-2-(3-fluoro-benzylidene-hydrazinocarbonyl)-phenyl]-benzamide] | 3.51
COc1ccc(C(=O)Nc2ccccc2C(=O)N/N=C/c2cccc(C)c2)cc1OC [Compound 20, 3,4-Dimethoxy-N-[2-(3-methyl-benzylidene-hydrazinocarbonyl)-phenyl]-benzamide] | 2.83
COc1ccc(C(=O)Nc2scc(C)c2C(=O)N/N=C/c2ccc(C)c(C)c2)cc1OC [Compound 521, N-[3-(3,4-Dimethyl-benzylidene-hydrazinocarbonyl)-4-methyl-thiophen-2-yl]-3,4-dimethoxy-benzamide] | 1.24
COc1ccc(C(=O)Nc2cc(Cl)ccc2C(=O)N/N=C/c2ccc(F)cc2)cc1OC [Compound 72, N-[5-Chloro-2-(4-fluoro-benzylidene-hydrazinocarbonyl)-phenyl]-3,4-dimethoxy-benzamide] | 10.4
CCN(CCO)Cc1cccc(C(=O)Nc2ccc(Cl)cc2C(=O)N/N=C/c2cccc(O)c2)c1 [Compound 430, N-[4-Chloro-2-(3-hydroxy-benzylidene-hydrazinocarbonyl)-phenyl]-3-{[ethyl-(2-hydroxy-ethyl)-amino]-methyl}-benzamide] | 4.53

Same assay, conditions: phosphate uptake, oocytes expressing rat NaPi-2b; 300 μM, determined from inhibition curve

Compound | inhibition at 300 µM [%]
CCN(CC)CCN(C)Cc1cccc(C(=O)Nc2ccc(Cl)cc2C(=O)N/N=C/c2ccc(OCC(=O)O)cc2)c1 [Compound 1000, (4-{[5-Chloro-2-(3-{[(2-diethylamino-ethyl)-methyl-amino]-methyl}-benzoylamino)-benzoyl]-hydrazinomethyl}-phenoxy)-acetic acid] | 32.1
CCN(CC)CCN(C)Cc1cccc(C(=O)Nc2c(C)csc2C(=O)N/N=C/c2ccc(F)cc2)c1 [Compound 528, 3-{[(2-Diethylamino-ethyl)-methyl-amino]-methyl}-N-[2-(4-fluoro-benzylidene-hydrazinocarbonyl)-4-methyl-thiophen-3-yl]-benzamide] | 58.4
COc1ccc(/C=N/NC(=O)c2cc(N3CCCC3=O)ccc2NC(=O)c2cccc(CN(CC(C)O)CC(C)O)c2)cc1 (stereo not shown) [Compound 946, 3-{[Bis-(2-hydroxy-propyl)-amino]-methyl}-N-[2-(4-methoxy-benzylidene-hydrazinocarbonyl)-4-(2-oxo-pyrrolidin-1-yl)-phenyl]-benzamide] | 45
Cc1ccc(/C=N/NC(=O)c2scc(C)c2NC(=O)c2cccc(CN3CCC(O)CC3)c2)cc1C [Compound 541, N-[2-(3,4-Dimethyl-benzylidene-hydrazinocarbonyl)-4-methyl-thiophen-3-yl]-3-(4-hydroxy-piperidin-1-ylmethyl)-benzamide] | 32.2
